The text below walks through data of patent publication US11185527B2, “Methods and compositions relating to steroid hormone receptor-dependent cancers” (Wayne State University, priority 2017, dated 2021).

For test [1], the system named is activation of ELK1 by MEK/ERK. In words: Gal4-ELK1 reporter activation by constitutively active MEK1 in transfected HeLa cells. The format is cell-based. The conditions noted are these: HeLa cells with caMEK1; trametinib 1 μM, KCI807 20 μM. On the procedure:
FIG. 8 is a graph showing results of co-transfection of HeLa cells with the Gal4-TATA-Luc construct and the expression plasmid for the Gal4-ELK1 fusion protein. In addition the cells were transfected with an expression plasmid for a constitutively active MEK1 protein (caMEK1). The cells were then treated with the MEK1 inhibitor, trametinib (1 μM), KCI807 (20 μM), or vehicle (DMSO). Cells were harvested 48h post transfection and luciferase activity was measured. In all panels, the error bars represent standard deviation of experimental triplicates. *P<0.001
Hela Cells were plated in a 24-well plate at a concentration of 75,000 cells/well in antibiotic-free red DMEM. The following day the cells were transfected with a total of 300 ng of plasmid DNA/well using Lipofectamine 2000. The cells were incubated for 24h then lysed using luciferase assay lysis buffer 5X from Promega. The luciferase activity of the cell lysates were measured using firefly substrate from Promega and a luminometer (Lumat LB9501, Berthold, Wildbad, Germany).
As a secondary test of target selectivity, the effect of 5,3′-dihydroxyflavone on activation of ELK1 by MEK/ERK was examined using HeLa cells co-transfected with the Gal4-TATA-Luc construct, the expression plasmid for the Gal4-ELK1 fusion protein and either an expression plasmid for a constitutively active MEK1 protein (caMEK1) or vector control.

In test [2] the test system is ELK1-dependent promoter activation by AR. The test can be described thus: Primary screening assay: luciferase reporter in recombinant HeLa cells (Gal4-TATA-Luc, Gal4-ELK1, AR) treated with testosterone. The class given is cell-based, human. The source says:
FIG. 6A is a schematic diagram of the reporter system for the primary screening assay. Recombinant HeLa cells used in this assay harbor the Gal4-TATA-Luc promoter-reporter, and stably express a Gal4-ELK1 fusion protein as well as the androgen receptor (AR). Gal4-ELK1 is bound to the Gal4 elements in the promoter. In the absence of testosterone (small circle), AR is localized in the cytoplasm. When testosterone is present it binds to AR causing AR to translocate to the nucleus where it then binds to Gal4-ELK1 and activates the downstream luciferase reporter.
HeLa HLR cells obtained from Dr. Johann Hofman (Innsbruck Medical University), which were originally designed to serve as a cell-based assay system to measure modulation of MAPK activity. HeLa HLR cells have a stably integrated minimal promoter-luciferase reporter containing five upstream Gal4 elements (Gal4-TATA-Luc) and also constitutively express a Gal4-ELK1 fusion protein in which the Gal4 DNA binding domain is substituted for the ETS DNA binding domain of ELK1. In order to produce recombinant cell lines for high throughput screening and counter screening of small molecule libraries, HeLa HLR were stably transduced with a vector expressing the full-length AR. A sequence encoding the full length AR (SEQ ID NO:9) was subcloned from the pCMV expression vector (Origene) into the pCDH-CMV-MCS-EF1-Puro cDNA Cloning and Expression Vector (System Biosciences) at NheI (upstream) and BamHI (downstream) sites. The lentiviral vector expressing full length AR was then packaged in lentivirus and the HeLa HLR cells were infected as described below in the sub-section “Lentivirus-mediated-Transduction.” After 72 hours (h) of infection, 2 ug/mL of puromycin was added to the culture medium to select for the transduced cells. The cells were plated at low density for colony formation (20-40 colonies) in a 100 mm dish. Clonal cells were isolated using cloning cylinders from CORNING (Cat. #3166-8). The selected clones were further expanded and then tested for luciferase induction by testosterone. The clone that gave the greatest luciferase signal to noise ratio in response to testosterone treatment was then chosen for use in the primary screening assay for high throughput small molecule screening.
For high throughput screening, recombinant primary screening cells were first depleted of hormone by growing them for 24h in medium in which the serum used was heat-inactivated and charcoal-stripped. The cells were then plated in 384-well white flat bottom plates (5,000 cells/well) (Corning Product #3570) using a Multidrop (Thermo Fisher Scientific, Waltham, Mass.). The plates were then incubated for 24h prior to adding test compounds. The following day test compounds from the LOPAC, Prestwick, or Maybridge Hitfinder libraries were added precisely in a 0.2 μL volume in the test wells using a Biomek FX liquid handler (Beckman Coutler, Break, Calif.) to achieve final media concentration of 10 μM of each test compound. Using the Multidrop (ThermoLab Systems, Helsinki, Finland), testosterone was added in addition to the test compounds to achieve a final media concentration of 10 nM. As the test compounds were re-constituted from powder stocks using dimethyl sulfoxide (DMSO) as the solvent, the final media concentration of DMSO was 0.4% v/v. For the assay negative control on each plate, one row of wells on each plate contained 10 nM testosterone and 0.4% v/v of DMSO. For the assay positive control on each plate, one row of wells on each plate contained 10 nM testosterone and 10 uM enzalutamide dissolved in DMSO (0.4% v/v of DMSO in the wells). The plates were incubated for 24h at 37° C. in 5% CO2. The medium was then aspirated leaving a residual volume 10 μl using an Elx 405-plate washer (Bio Tek U.S.). Then, 10 uL of the assay reagent Bright-Glo (Promega Corp., Madison Wis.) was added to each well. […]

Test [3] concerns PDX-PR011 tumor xenograft. The test can be described thus: PDX-PR011 patient-derived CRPC tumor xenograft in male SCID mice, tumor growth. The class given is in vivo, mouse. The conditions noted are these: treatment from Day 1; KCI807 IP as for 22Rv1; enzalutamide oral 50 mg/Kg daily. As to the method:
FIG. 5B is a graph showing results obtained when PDX-PR011 tumor xenografts were implanted sc into male SCID mice in both flanks. The vehicle control and KCI807 were administered as described for FIG. 5A with the exception that treatment was begun on Day 1 after tumor implantation. Tumor volumes were monitored as described herein.
FIG. 14 is a graph showing results obtained when PDX-PR011 tumor xenografts were implanted sc into male SCID mice in both flanks. […] Treatment was begun on Day 1 after tumor implantation.
In general terms: A xenograft is tissue or cells of one species grown in another, often human tumour cells in immunodeficient mice.

As to `O=c1cc(-c2cc(O)cc(F)c2)oc2cccc(O)c12` [5′-fluoro-5,3′-dihydroxyflavone], in test [1], the “inhibition of luciferase reporter activation by MEK1 (activation of ELK1 by MEK/ERK)” value was “did not affect”. Moreover, in test [2] (primary versus counter screening assay), the “selectivity for ELK1-dependent versus ARE-dependent promoter activity” value is given as “more selective for the ELK1-dependent promoter activity than ARE-dependent activity”.
Consider `O=c1cc(-c2cccc(O)c2)oc2cccc(O)c12` [KCI807, 5,3′-dihydroxyflavone], for which the “inhibition of luciferase reporter activation by MEK1 (activation of ELK1 by MEK/ERK)” value in test [1] was “did not inhibit”. Also, the “tumor growth inhibition, PDX-PR011 xenograft” value in test [3] is listed as “significantly inhibited”.
As for `CNC(=O)c1ccc(N2C(=S)N(c3ccc(C#N)c(C(F)(F)F)c3)C(=O)C2(C)C)cc1F` [enzalutamide], the “tumor growth inhibition, PDX-PR011 xenograft” value in test [3] is “not inhibited”. Besides, the “inhibition of ELK1-dependent promoter activation by AR (in words)” value in test [2] (testosterone-treated recombinant HeLa cells, luciferase) is “completely suppressed the signal”.
